One data set concerns E. Coli Mach1-T1®. The data set is described as follows: MIC of 3-HP, microaerobic, 96-well, MOPS minimal media (Examples 2 and 4). Type of data set: cell-based, Escherichia coli. The following applies: supplement added to MOPS minimal media, 24 hours.
The subject of a further data set is E. Coli K12. The format is cell-based, Escherichia coli. The following applies: E. Coli K12, M9 minimal media, control or supplemented, aerobic, 24 hours.
In data set [1] the test system is Yeast strains, S288 C background. As to the kind of experiment: Yeast aerobic MIC evaluation (Tables 13 and 15). Type of data set: cell-based. The following applies: Saccharomyces cerevisiae, read-out: Average MIC Assay Result (g/L 3-HP), S288C, SD media, aerobic, MIC of 3-HP with the named supplement (label 3-HP = no supplement).
Description: The minimum inhibitory concentration (MIC) was determined aerobically in a 96 well-plate format. […] A 1% (v/v) inoculum was introduced into a 5 ml culture of SD minimal media without vitamins. After the cells reached mid-exponential phase, the culture was diluted to an OD600 of 0.200. The cells were further diluted 1:5 and a 10 μL aliquot was used to inoculate each well of a 96 well plate (˜10^4 cells per well) to total volume of 100 uL. […] Plates were incubated for 72 hours at 30 C.
The test system is the same in data set [2]. As to the kind of experiment: Yeast anaerobic MIC evaluation (Tables 14 and 16). The format is cell-based, Saccharomyces cerevisiae. The following applies: for MIC: Saccharomyces cerevisiae, read-out: Average MIC Assay Result (g/L 3-HP). The procedure:
The minimum inhibitory concentration (MIC) was determined anaerobically in a 96 well-plate format. […] A 1% (v/v) inoculum was introduced into a 5 ml culture of SD minimal media without vitamins. After the cells reached mid-exponential phase, the culture was diluted to an OD600 of 0.200. The cells were further diluted 1:5 and a 10 μL aliquot was used to inoculate each well of a 96 well plate (˜10^4 cells per well) to total volume of 100 uL. […] Plates were incubated for 72 hours at 30 C. […] Plates were sealed in biobag anaerobic chambers that contained gas generators for anaerobic conditions and incubated for 72 hours at 30 C.

Data set [3] deals with E. Coli BW25113. The data set is described as follows: MIC evaluation general protocol, E. Coli aerobic (Tables 6 and 8). The format is cell-based. The settings on record: for average MIC Assay Result (g/L 3-HP): MIC of 3-HP for strain BW25113 in M9 media with the named supplement(s); for % Increase Over Control: increase of 3-HP MIC vs BW25113 in M9 without supplement. Here is the method: The minimum inhibitory concentration (MIC) was determined aerobically in a 96 well-plate format. […] Overnight cultures of strains were grown in triplicate in 5 mL LB (with antibiotic where appropriate). A 1% (v/v) inoculum was introduced into a 5 ml culture of M9 minimal media.
(§1) For the above MIC evaluations, the final results are expressed in chemical agent concentrations determined by analysis of the stock solution by HPLC (i.e., see Subsection Mb).

Data set [4] has as its system E. Coli BW25113. The data set is described as follows: MIC evaluation general protocol, E. Coli anaerobic (Tables 7 and 9). Type of data set: cell-based. The following applies: for MIC: Escherichia coli, read-out: MIC Assay Result (g/L 3-HP); for % Increase Over Control: MIC vs BW25113 in M9 without supplement. The procedure: The minimum inhibitory concentration (MIC) was determined anerobically in a 96 well-plate format. […] Overnight cultures of strains were grown in triplicate in 5 mL LB (with antibiotic where appropriate). A 1% (v/v) inoculum was introduced into a 5 ml culture of M9 minimal media.
as §1

In the next data set the test system is B. subtilis. As to the kind of experiment: MIC evaluation general protocol, B. subtilis aerobic (Table 11). The format is cell-based, Bacillus subtilis. The following applies: B. subtilis 168, M9 + glu + trp, growth with 3-HP and the named supplement (label 3-HP = no supplement).
The nature of data set [5]: Preparation of neutralized 3-HP stock solution (observation at neutral pH). Type of data set: physicochemical. The settings on record: pH 7, aqueous buffer. From the text:
3-HP was obtained from TCI America (Portland, Oreg.). Significant acrylic acid and 2-oxydipropionic contamination was observed via HPLC analysis. Samples were subsequently treated by diethyl ether extraction to remove acrylic acid and a portion of the 2-oxydipropionic contaminants. Samples were then neutralized with 10 M NaOH to a final pH of 7.0. […] The working stock solution was used for the selection and MIC evaluations in this example.
3-HP was obtained from TCI America (Portland, Oreg.). Significant acrylic acid and 2-oxydipropionic contamination was observed via HPLC analysis. Samples were subsequently treated by diethyl ether extraction to remove acrylic acid and a portion of the 2-oxydipropionic contaminants. Samples were then neutralized with 10 M NaOH to a final pH of 7.0. […] The working stock solution was used for the selection, growth rates and MIC evaluations in this example.

Another data set concerns MACH1™-T1® E. Coli. The data set is described as follows: IroK expression study, microaerobic MIC, MOPS minimal media, 1 mM IPTG. Type of data set: cell-based. The following applies: IroK expressed from pKK223-3; data not shown. The procedure: The two oligonucleotides were added in a 1:1 ratio and annealed according to standard methodology in a thermal cycler. Ligation of the annealed primer product with the pKK223-3 expression vector (SEQ ID NO:008, Pharmacia, Piscataway, N.J.) was performed with T4 Ligase (Invitrogen, Carlsbad, Calif.) and incubated at 25° C. overnight. The ligation product was then electroporated into competent MACH1™-T1®, plated on LB+ampicillan, and incubated at 37° C. for 24 hours. Plasmids were isolated and confirmed by purification and subsequent restriction digest and sequencing (Macrogen, Rockville, Md.). MICs were then determined corresponding to 1 mM IPTG induction.
The minimum inhibitory concentration (MIC) was determined microaerobically in a 96 well-plate format. Overnight cultures of strains were grown in 5 mL LB (with antibiotic where appropriate). A 1% (v/v) inoculum was introduced into a 15 ml culture of MOPS minimal media. After the cells reached mid-exponential phase, the culture was diluted to an OD600 of 0.200. The cells were further diluted 1:20 and a 10 μL aliquot was used to inoculate each well of a 96 well plate (˜10^4 cells per well).

[6] abbreviates: BW25113, M9 with supplements at Table 3 levels (or EZ Rich), anaerobic, 24 hours.

This note sets out measurements from patent US20120264902A1 (The Regents of the University of Colorado, a body corporate, priority 2011, published 2012).

Values after ≈ are worked out from the molar mass of the structure shown. Where two headings read alike, the source gives them in different places.

Description for B. subtilis: The minimum inhibitory concentration (MIC) was determined aerobically in a 96 well-plate format. […] Overnight cultures of strains were grown in triplicate in 5 mL LB (with antibiotic where appropriate). A 1% (v/v) inoculum was introduced into a 5 ml culture of M9 minimal media+glutamate.
Description for E. Coli K12: Overnight cultures of strains were grown in 5 ml LB (with antibiotic where appropriate) at 37° C. in a shaking incubator. A 1 v/v % was used to inoculate 10 mL of M9 minimal media. After the cells reached mid-exponential phase, the culture was diluted to an OD600 of 0.200. The cells were further diluted 1:20 and a 10 ul aliquot was used to inoculate each well (˜10^4 cells per well). […] The MIC endpoint is the lowest concentration of compound at which there was no visible growth.

For `CCC(=O)C(=O)O` [2-oxobutyrate], the “MIC increases (3-HP) with supplementation” value (from here on “MIC increases (3-HP)”) with E. Coli Mach1-T1® came out at 7%.
Regarding `O=C([O-])O.[Na+]` [Bicarbonate, sodium bicarbonate], the “Minimum inhibitory concentration (MIC) of 3-HP” value in the data set with E. Coli K12 was found to be 30 mg/mL.
As for `NC(=O)NCCC[C@H](N)C(=O)O` [Citrulline (C)], the results for the MIC in data set [1] and in data set [2] were 58 g/L and 97 g/L (≈ 554 mM), respectively.
With `O=C(O)c1cccc(O)c1O` [Dihydroxybenzoate, 2,3-dihydroxybenzoic acid], the “average MIC Assay Result (g/L 3-HP)” value in the data set with E. Coli BW25113 [3] came out at 35 g/L 3-HP. For the same compound, the “% Increase Over Control” value is given as 27% in the data set on E. Coli BW25113 [3] and 33% in the data set on E. Coli BW25113 [4] (anaerobic). Besides, the “MIC increases (3-HP)” value with E. Coli Mach1-T1® is listed as 33%. Besides, the MIC in the data set on E. Coli BW25113 [4] (setting [6]) came out at 40 g/L (≈ 260 mM).
Turning to `N[C@@H](CCS)C(=O)O` [Homocysteine], in the data set with E. Coli BW25113 [3], the “average MIC Assay Result (g/L 3-HP)” value is 30 g/L 3-HP and the “% Increase Over Control” value amounted to 9%. For the same compound, the “% Increase Over Control” value in data set [2] (S288C, SD media, anaerobic, MIC with supplement vs no supplement) stood at 7%. In addition, the MIC in [2] turned out to be 40 g/L (≈ 296 mM).
With `N[C@@H](CCO)C(=O)O` [Homoserine], the “MIC increases (3-HP)” value in the data set with E. Coli Mach1-T1® was found to be 33%. Moreover, in the data set on E. Coli BW25113 [4] (setting [6]), the MIC amounted to 30 g/L (≈ 252 mM). For the same compound, the “% Increase Over Control” value in the data set on E. Coli BW25113 [4] (anaerobic) is reported as 0%.
Regarding `CC[C@H](C)[C@H](N)C(=O)O` [Isoleucine (B)], in data set [2], the MIC was determined as 38 g/L (≈ 290 mM).
With `NCCCC[C@H](N)C(=O)O` [Lysine], the MIC in data set [2] came out at 45 g/L (≈ 308 mM); with E. Coli BW25113 [4] (BW25113, 24 h), 41.7 g/L (≈ 285 mM).
As for `CSCC[C@H](N)C(=O)O` [Methionine], the MIC in the data set with E. Coli BW25113 [4] (setting [6]) was 42.8 g/L (≈ 287 mM). For the same compound, in the data set on E. Coli BW25113 [4] (anaerobic), the “% Increase Over Control” value was 43%.
With `N[C@@H](Cc1ccccc1)C(=O)O` [Phenylalanine], the “MIC increases (3-HP)” value with E. Coli Mach1-T1® turned out to be 33%. Besides, the MIC in the data set on E. Coli BW25113 [4] (setting [6]) is 32.1 g/L (≈ 194 mM). Besides, in the data set with E. Coli BW25113 [4] (anaerobic), the “% Increase Over Control” value was 7%.
Take `NCCCCN` [Putrescine]: in the data set on E. Coli BW25113 [4] (setting [6]), the MIC was 35 g/L (≈ 397 mM). In addition, the “% Increase Over Control” value with E. Coli BW25113 [4] (anaerobic) is recorded as 17%.
For `N[C@@H](CO)C(=O)O` [Serine], the MIC was 45 g/L (≈ 428 mM) in data set [2] and 32.1 g/L (≈ 305 mM) in the data set with E. Coli BW25113 [4] (setting [6]).
For `O=C(O)C1=C[C@@H](O)[C@@H](O)[C@H](O)C1` [Shikimate (A)], the figures for the MIC in data set [1] and in [2] were 80 g/L and 60 g/L (≈ 345 mM), respectively.
As to `NCCCCNCCCN` [Spermidine], the MIC in the data set on E. Coli BW25113 [4] (setting [6]) came out at 35 g/L (≈ 241 mM). Besides, in the data set with E. Coli BW25113 [4] (anaerobic), the “% Increase Over Control” value stood at 17%.
One may read the solubility as the concentration that dissolves in the medium under given conditions. Low values mean little dissolved substance, high ones much dissolved substance. For the compound `O=C(O)CCO` [Strain 3-HP, 3-hydroxypropionic acid], in the data set with B. subtilis, the “Avg 24 hr ΔOD600” value is listed as 0.04. Moreover, in data set [5], the solubility was > 35 mg/mL.
On to `C[C@@H](O)[C@H](N)C(=O)O` [Threonine], for which the “MIC increases (3-HP)” value in the data set on E. Coli Mach1-T1® came out at 3%.
For the compound `N[C@@H](Cc1c[nH]c2ccccc12)C(=O)O` [Tryptophan], in the data set on E. Coli Mach1-T1®, the “MIC increases (3-HP)” value stood at 33%.
Same read-out and setting: as for `N[C@@H](Cc1ccc(O)cc1)C(=O)O` [Tyrosine], the figure is 40%.
As to `CC(=O)O` [acetic], in the data set on MACH1™-T1® E. Coli, the “MICs of other organic acids with IroK expression” value (“MICs of other organic acids” for short) was “unchanged”.
Turning to `C=CC(=O)O` [acrylic, acrylic acid], the “MICs of other organic acids” value in the data set with MACH1™-T1® E. Coli is “unchanged”.
Turning to `Cl.NC1CCSC1=O` (stereo not drawn) [homocysteine thiolactone hydrochloride], the “MIC increases (3-HP)” value with E. Coli Mach1-T1® was found to be 60%.
For the compound `CC(O)C(=O)O` (stereo not drawn) [lactic], the “MICs of other organic acids” value in the data set on MACH1™-T1® E. Coli was “unchanged”.
With `Nc1ccc(C(=O)O)cc1` [p-aminobenzoate], in the data set with E. Coli Mach1-T1®, the “MIC increases (3-HP)” value is listed as 7%.
For the compound `NNC(=O)c1ccc(O)cc1` [p-hydroxybenzoic acid hydrazide], the “MIC increases (3-HP)” value with E. Coli Mach1-T1® was 33%.
With `Cc1ncc(CO)c(CO)c1O.Cl` [pyridoxine hydrochloride], the “MIC increases (3-HP)” value with E. Coli Mach1-T1® turned out to be 0%.
For the compound Tetrahydrofolate, in the data set with E. Coli BW25113 [3], the “average MIC Assay Result (g/L 3-HP)” value was 30 g/L 3-HP. The “% Increase Over Control” value with E. Coli BW25113 [3] was determined as 9%; in the data set with E. Coli BW25113 [4] (anaerobic) it was 33%. For the same compound, the “MIC Assay Result (g/L 3-HP)” value against E. Coli BW25113 [4] (setting [6]) was 40.0 g/L.
